This data set has as its system sterile inflammation. More on the design: species or system Rhesus monkeys. The following applies: rhesus monkey, in vivo. How it is done: Two adult female Rhesus monkeys weighing approximately 10 kg were used in the imaging experiments. Since these animals had been used previously in imaging experiments with other radiopharmaceuticals, they had received numerous intramuscular injections in the right posterior thigh during the induction of anesthesia.
Under light ketamine anesthesia (5.5 mg/kg), the animals were injected intravenously through a leg vein with approximately 0.5 mCi ^99m -Tc-labeled peptide (<2.0 ng/kg). At 5 min, 30 min, 1 hr, and 19 hrs following injection of radiolabeled peptide, the animals were anesthetized with ketamine/xylazine (15.0 and 1.5 mg/kg) and whole body scintigrams were acquired using a large field of view gamma camera equipped with a parallel hole high resolution low energy collimator interfaced to a dedicated computer system (Technicare Gemini 700, Technicare 560, Solon, Ohio). […] At 5 minutes prior to injection and 1, 3, 5, and 15 minutes after injection 0.5 mL samples of blood were collected and the CBC was measured.
Regions of interest were drawn over: the whole animal, cardiac blood pool, lung, liver, spleen, kidney, intestine, bone, normal muscle, and inflamed muscle; and count densities (CPM/pixel) were calculated. The results were expressed as tissue-to-blood pool, % injected dose/gram (%ID/g) and target to background ratios (inflamed thigh/contralateral thigh).

On to `CSCC[C@H](NC=O)C(=O)N[C@@H](CC(C)C)C(=O)N[C@@H](Cc1ccccc1)C(=O)NCCCCCCNC(=O)c1ccc(NN)nc1` [HP3, For-MLFNH(CH2)6 NH-HYNIC], for which the “effects on WBC level” value was “no significant effects”.

The values are drawn from US5792444A, “Labeled chemotactic peptides to image focal sites of infection or inflammation” (The General Hospital Corporation, priority 1993, dated 1998).
